Data set [1] can be described thus: in vitro. To be noted: monkey.
The test system of the next data set is Mtb Erdman strain. As to the kind of experiment: BALB/c acute infection model, oral administration. The data set is classed as in vivo, Mycobacterium tuberculosis.
The nature of data set [2]: in vitro. To be noted: human, Caco-2.
For data set [3] the following is noted: mouse, in vivo, iv, 10 mg/kg.
Data set [4] deals with intracellular Mtb CDC1551-tdTomato in macrophages (J774A.1 cells). The data set is described as follows: Killing effect against intracellular Mtb in J774A.1 macrophages. The data set is classed as cell-based, Mycobacterium tuberculosis. The conditions noted are these: at 2xMIC; for Killing of intracellular Mtb (in words): J774A.1 macrophages.
Data set [5] concerns non-replicating Mtb (H37Rv). The data set is described as follows: microbe, parasite or virus in culture. To be noted: Mycobacterium tuberculosis, 240 h, read-out: MIC (LORA). In kind it is cell-based.
The next data set can be described thus: in vivo. The conditions noted are these: BALB/c, mouse, po, 30 mg/kg.
The test system of another data set is Mycobacterium smegmatis. To be noted: cited from earlier work.

Consider ten molecules from article PMC6154393 (Bioorganic & medicinal chemistry, 2018).

Converted amounts (≈) assume the structure as drawn.

`CC[C@@H](CO)NCCN[C@@H](CC)CO` [Ethambutol (EMB), Ethambutol] had a half-maximal inhibitory concentration (IC50) at 72 h in “in vitro [1]” of over 200 µg/mL.

Take `NNC(=O)c1ccncc1` [Isoniazid (INH), Isoniazid, reference compound]: in “in vitro [1]”, the 50% inhibitory concentration (IC50) at 72 h was over 200 µg/mL. Moreover, in the data set on Mtb Erdman strain (2.5 mg/kg, 3 weeks, lung burden relative to untreated control), the Log reduction result was “about 4 Log10”.

In turn, `CC(=O)NC[C@H]1CN(c2ccc(N3CCOCC3)c(F)c2)C(=O)O1` [Linezolid] had an IC50 at 72 h in the data set “in vitro [1]” of over 200 µg/mL.

With `CNC(=C[N+](=O)[O-])NCCSCc1ccc(CN(C)C)o1` [Ranitidine], in “in vitro [2]”, the Papp A→B at 2 h, 10 µM worked out at 0.237 ×10⁻⁶ cm/s and the efflux ratio at 2 h, 10 µM was 5.

Molecule `CO[C@H]1/C=C/O[C@@]2(C)Oc3c(C)c(O)c4c(O)c(c(/C=N/N5CCN(C)CC5)c(O)c4c3C2=O)NC(=O)/C(C)=C\C=C\[C@H](C)[C@H](O)[C@@H](C)[C@@H](O)[C@@H](C)[C@H](OC(C)=O)[C@@H]1C` [Rifampicin (RIF), Rifampicin] gave a 50% inhibitory concentration (IC50) at 72 h in “in vitro [1]” of over 200 µg/mL.

Consider `CC[C@]1(C)C[C@@H](OC(=O)CSC(C)(C)CNC(=O)[C@H](N)CC(C)C)[C@]2(C)[C@H](C)CC[C@]3(CC[C@@H](O)[C@H]32)[C@@H](C)[C@@H]1O` [UT-800 (1)], for which, in data set [3], the AUC0-24h is recorded as 66,281 ng•h/g. Further, the “Time to kill Mtb in infected macrophages” value in data set [4] (J774A.1 cells, Mtb CDC1551-tdTomato) is reported as at most 72 h. Also, the “Killing of intracellular Mtb (in words)” value in data set [4] was “kills intracellular Mtb faster than rifampicin”; in data set [4] (listed as 1), “killed intracellular Mtb more effectively than INH and RIF”. In data set [5], the MIC was in the range of 1.04 to 3.46 µg/mL (≈ 1.78 to 5.94 µM). The Log10 cfu/mouse in the data set with Mtb Erdman strain (100 mg/kg, oral, 3 weeks, lungs, BALB/c mice, mean of 5) was determined as 8.1E+05; in the data set with Mtb Erdman strain (200 mg/kg, oral, 3 weeks, lungs, BALB/c mice, mean of 5), 4.4E+05; with Mtb Erdman strain (in vivo) it was 1.2E+06. In the data set with Mtb Erdman strain (200 mg/kg, 3 weeks), the Viable organisms persisted is reported as 5.6-5.7 log10 cfu/mouse. Also, in the data set “in vivo”, the Tmax was at most 1 h.

For the molecule `C=C[C@]1(C)C[C@@H](OC(=O)CSC(C)(C)CNC(=O)[C@H](N)CC(C)C)[C@]2(C)[C@H](C)CC[C@]3(CCC(=O)[C@H]32)[C@@H](C)[C@@H]1O` [UT-810 (2)], in data set [5], the MIC fell in the range of 1.04 to 3.46 µg/mL (≈ 1.8 to 5.98 µM).

`CC[C@]1(C)C[C@@H](OC(=O)CSC(C)(C)CNC(=O)[C@H](N)CC(C)C)[C@]2(C)[C@H](C)CC[C@]3(CCC(=O)[C@H]32)[C@@H](C)[C@@H]1O` [UT-815 (3)]: in data set [5], the MIC was in the range of 1.04 to 3.46 µg/mL (≈ 1.79 to 5.96 µM).

Regarding `C=C[C@]1(C)C[C@@H](OC(=O)CSC(C)(C)CNC(=O)[C@H](N)CC(C)C)[C@]2(C)[C@H](C)CC[C@]3(CC[C@@H](O)[C@H]32)[C@@H](C)[C@@H]1O` [UT-820 (4)], the MIC in data set [5] was 1.04 to 3.46 µg/mL (≈ 1.79 to 5.96 µM).

For `C=C[C@]1(C)C[C@@H](OC(=O)CSC(C)(C)CNC(=O)[C@H](N)C(C)C)[C@]2(C)[C@H](C)CC[C@]3(CCC(=O)[C@H]32)[C@@H](C)[C@@H]1O` [Valnemulin], in the data set on Mycobacterium smegmatis, the MIC was 8 to 16 µg/mL. This molecule registered an IC50 at 72 h in “in vitro [1]” of 15 µg/mL (≈ 26.6 µM).
